Among the test systems are UACC-257 melanoma; HOP-92 NSCLC; NCI-H460 lung; IGROV1 ovarian; M14 melanoma; UO-31 renal; MOLT-4 leukemia; MDA-MB-231 breast; SK-OV-3 ovarian; SNB-19 CNS; MCF7 breast.
Experiment in all cases: growth of human tumour cells (NCI), 48 h

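These data come from cells grown in 96-well plates and exposed to compound for 48 hours at five concentrations. Abbreviation: GI50, concentration required for 50% inhibition of growth. TGI is the concentration that stops growth completely.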 A value given as a limit tells only on which side of the number the result lay.

On to `CN1C(=O)CN2C(Cl)(Cl)C2(c2ccccc2F)c2cc([N+](=O)[O-])ccc21` (stereo unspecified), for which the TGI with UACC-257 melanoma is over 100 µM; in the assay with HOP-92 NSCLC, 91.4 µM; with NCI-H460 lung, over 100 µM; in the assay on IGROV1 ovarian it was over 100 µM; in the assay on M14 melanoma, over 100 µM; with UO-31 renal, over 100 µM. This compound returned a TGI in the assay with MOLT-4 leukemia of 57.2 µM.
As for `CC(C)OC(=O)Nc1cccc(Cl)c1`, the TGI in the assay with UACC-257 melanoma, with HOP-92 NSCLC, with NCI-H460 lung, in the assay on IGROV1 ovarian, in the assay with MDA-MB-231 breast and in the assay on M14 melanoma was over 100 µM throughout. The TGI with SK-OV-3 ovarian, in the assay on SNB-19 CNS, in the assay on UO-31 renal, in the assay on MCF7 breast and with MOLT-4 leukemia was over 100 µM in each case.
On to `COc1ccc(CC2c3cc(OC)c(OC)c(OC)c3CC[N+]2(C)C)cc1Oc1ccc(CC2c3cc4c(c(OC)c3CC[N+]2(C)C)OCO4)cc1` (stereo unspecified), for which the TGI in the assay on UACC-257 melanoma, in the assay on HOP-92 NSCLC, in the assay with NCI-H460 lung, in the assay with IGROV1 ovarian, with MDA-MB-231 breast and in the assay on M14 melanoma was over 100 µM in each case. The TGI with SK-OV-3 ovarian, with SNB-19 CNS, in the assay with UO-31 renal, in the assay with MCF7 breast and in the assay on MOLT-4 leukemia was over 100 µM each time.
`Nc1nc(Cl)cc(NCCCNc2cc(Cl)nc(N)n2)n1`: the TGI with UACC-257 melanoma, with HOP-92 NSCLC, in the assay on NCI-H460 lung, in the assay with IGROV1 ovarian, in the assay with M14 melanoma and in the assay on SK-OV-3 ovarian was over 100 µM in each case. Moreover, the TGI with UO-31 renal and with MOLT-4 leukemia was over 100 µM throughout.
For `Cn1cc(-c2csc(-c3cn(C)c4ccc(Br)cc34)n2)c2cnccc21`, the GI50 in the assay with UACC-257 melanoma was 1.95 µM; in the assay with NCI-H460 lung, 1.87 µM; with IGROV1 ovarian, 1.76 µM; in the assay with MDA-MB-231 breast it was 1.66 µM; in the assay on SK-OV-3 ovarian it was 1.99 µM; in the assay with SNB-19 CNS, 1.73 µM. In addition, the GI50 in the assay with UO-31 renal was 1.63 µM; in the assay with MCF7 breast it was 1.78 µM. The TGI with UACC-257 melanoma turned out to be 3.63 µM; in the assay with NCI-H460 lung it was 3.47 µM; in the assay on IGROV1 ovarian it was 3.28 µM; with MDA-MB-231 breast it was 3.09 µM; in the assay on SK-OV-3 ovarian, 3.6 µM; in the assay on SNB-19 CNS it was 3.26 µM. Further, the TGI with UO-31 renal was found to be 3 µM; in the assay with MCF7 breast, 3.43 µM.
As for `CC(N)C(=O)OCN1C(=O)C2C3C=CC(C2C1=O)C1C2C(=O)N(COC(=O)C(C)N)C(=O)C2C31` (stereo unspecified), the TGI with UACC-257 melanoma was 75.4 µM; in the assay with HOP-92 NSCLC it was over 100 µM; in the assay on NCI-H460 lung it was 34.3 µM; with IGROV1 ovarian, over 100 µM; in the assay with M14 melanoma it was 36.7 µM; with SK-OV-3 ovarian, over 100 µM. The TGI in the assay on SNB-19 CNS was over 100 µM; with UO-31 renal, over 100 µM; in the assay on MOLT-4 leukemia, 51.8 µM.
Consider `NC(=O)c1ccc(NS(=O)(=O)c2ccc(N)cc2)nc1`, for which the TGI with UACC-257 melanoma, with HOP-92 NSCLC, in the assay with NCI-H460 lung, in the assay on IGROV1 ovarian, in the assay with MDA-MB-231 breast and with M14 melanoma was over 100 µM in each case. The TGI in the assay on SK-OV-3 ovarian, in the assay with SNB-19 CNS, with UO-31 renal, in the assay with MCF7 breast and in the assay on MOLT-4 leukemia was over 100 µM each time.
Turning to `COC(=O)C(=O)C(C(=O)C1=NS(=O)(=O)c2cc(S(N)(=O)=O)c(Cl)cc2N1)c1nc2ccc(C(=O)c3ccccc3)cc2[nH]c1=O` (stereo unspecified), the TGI with UACC-257 melanoma, in the assay with NCI-H460 lung, in the assay with IGROV1 ovarian, in the assay on M14 melanoma, in the assay on SNB-19 CNS and with UO-31 renal was over 100 µM throughout. This compound also came in with a TGI in the assay on MOLT-4 leukemia of over 100 µM.
As to `Cc1cccc(O)c1-c1nnc(CCCCCCCCc2nnc(-c3c(C)cccc3O)n2N)n1N`, the TGI with UACC-257 melanoma is over 100 µM; in the assay with HOP-92 NSCLC, over 31.6 µM; with NCI-H460 lung it was over 100 µM; in the assay on IGROV1 ovarian, over 100 µM; in the assay on MDA-MB-231 breast it was over 100 µM; with M14 melanoma, over 100 µM. The TGI in the assay with SK-OV-3 ovarian is over 100 µM; with SNB-19 CNS it was over 100 µM; with UO-31 renal, over 100 µM; in the assay with MCF7 breast it was over 100 µM; in the assay on MOLT-4 leukemia, over 42.1 µM.
Take `Cc1ccc(S(=O)(=O)N2c3ccccc3[C@H]3CCc4c([nH]c5ccccc45)[C@H]32)cc1`: the TGI with UACC-257 melanoma, in the assay on HOP-92 NSCLC, with NCI-H460 lung, with IGROV1 ovarian, in the assay with MDA-MB-231 breast and with M14 melanoma was over 100 µM each time. Further, the TGI in the assay on SK-OV-3 ovarian, in the assay with SNB-19 CNS, in the assay with UO-31 renal, with MCF7 breast and with MOLT-4 leukemia was over 100 µM in each case.
Regarding `c1ccc(CSC2(SCc3ccccc3)CCCC2)cc1`, the TGI with NCI-H460 lung, in the assay on IGROV1 ovarian, with MDA-MB-231 breast, in the assay with M14 melanoma, with SK-OV-3 ovarian and in the assay on SNB-19 CNS was over 10 µM throughout. The TGI in the assay on UO-31 renal, with MCF7 breast and with MOLT-4 leukemia was over 10 µM in each case.
